{"source": "ChEMBL document CHEMBL5230103", "about": "“Hydroxamic acid hybrids as the potential anticancer agents: An Overview” (Eur J Med Chem, 2020)", "key": {"[1]": {"tested_on": "MDA-MB-231", "assay": "Antitumor activity against human MDA-MB-231 cells xenografted in mouse assessed as reduction on tumor volume at 20 mg/kg, ip relative to control", "format": "functional", "parameters": "scale not given: the % may be the effect or the level left"}, "[2]": {"tested_on": "SU-DHL-6", "assay": "Cytotoxicity against human SU-DHL-6 cells assessed as inhibition of cell growth by SRB assay", "format": "functional, cell-based"}, "[3]": {"tested_on": "Ramos", "assay": "Cytotoxicity against human Ramos cells assessed as inhibition of cell growth by SRB assay", "format": "functional, cell-based"}, "[4]": {"tested_on": "SNU-398", "assay": "Cytotoxicity against human SNU-398 cells assessed as inhibition of cell growth by SRB assay", "format": "functional, cell-based"}, "[5]": {"tested_on": "HT-29", "assay": "Cytotoxicity against human HT-29 cells assessed as inhibition of cell growth by MTT assay", "format": "functional, cell-based"}, "[6]": {"tested_on": "KB-V1", "assay": "Cytotoxicity against human vinblastine resistant KB-V1 cells assessed as inhibition of cell growth by MTT assay", "format": "functional, cell-based"}, "[7]": {"tested_on": "HCT-116", "assay": "Cytotoxicity against human HCT-116 cells assessed as inhibition of cell growth by MTT assay", "format": "functional, cell-based"}, "[8]": {"assay": "Cytotoxicity against human MCF7/Topo cells assessed as inhibition of cell growth by MTT assay", "format": "functional, cell-based"}, "[9]": {"tested_on": "PANC-1", "assay": "Cytotoxicity against human PANC-1 cells assessed as inhibition of cell growth by MTT assay", "format": "functional, cell-based"}, "[10]": {"assay": "Cytotoxicity against chicken heart fibroblast cells", "format": "toxicity, cell-based, Gallus gallus"}, "[11]": {"tested_on": "518A2", "assay": "Cytotoxicity against human 518A2 cells assessed as inhibition of cell growth by MTT assay", "format": "functional, cell-based"}, "[12]": {"assay": "Cytotoxicity against human HuT 102 cells assessed as inhibition of cell growth by MTT assay", "format": "functional, cell-based"}, "[13]": {"tested_on": "HL-60", "assay": "Antiproliferative activity against human HL-60 cells assessed as inhibition of cell growth by MTT assay", "format": "functional, cell-based"}, "[14]": {"tested_on": "PC-3", "assay": "Cytotoxicity against human PC-3 cells assessed as inhibition of cell growth by SRB assay", "format": "functional, cell-based"}, "[15]": {"tested_on": "SW-620", "assay": "Potency index, ratio of vorinostat IC50 to test compound IC50 for cytotoxicity against human SW620 cells assessed as inhibition of cell growth by SRB assay", "format": "functional"}, "[16]": {"tested_on": "ASPC1", "assay": "Cytotoxicity against human ASPC1 cells assessed as inhibition of cell growth by SRB assay", "format": "functional, cell-based"}, "[17]": {"target": "Histone deacetylase 2 (Homo sapiens, UniProt Q92769)", "sequence (Q92769 whole entry)": "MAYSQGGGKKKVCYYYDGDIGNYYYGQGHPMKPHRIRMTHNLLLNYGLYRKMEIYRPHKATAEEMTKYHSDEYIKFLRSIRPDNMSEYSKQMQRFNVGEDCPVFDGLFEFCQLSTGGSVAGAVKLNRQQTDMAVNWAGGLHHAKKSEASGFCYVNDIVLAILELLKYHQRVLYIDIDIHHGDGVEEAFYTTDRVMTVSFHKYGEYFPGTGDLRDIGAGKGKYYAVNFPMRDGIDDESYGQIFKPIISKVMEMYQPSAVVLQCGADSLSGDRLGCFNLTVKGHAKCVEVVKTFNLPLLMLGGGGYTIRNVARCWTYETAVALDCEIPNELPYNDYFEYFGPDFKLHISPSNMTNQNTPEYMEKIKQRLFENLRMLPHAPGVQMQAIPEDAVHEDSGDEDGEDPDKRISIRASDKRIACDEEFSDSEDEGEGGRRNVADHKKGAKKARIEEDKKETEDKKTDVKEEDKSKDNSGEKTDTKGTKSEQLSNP", "assay": "Inhibition of HDAC2 (unknown origin)"}, "[18]": {"tested_on": "ASPC1", "assay": "Potency index, ratio of vorinostat IC50 to test compound IC50 for cytotoxicity against human ASPC1 cells assessed as inhibition of cell growth by SRB assay", "format": "functional"}, "[19]": {"tested_on": "SW-620", "assay": "Cytotoxicity against human SW620 cells assessed as inhibition of cell growth by SRB assay", "format": "functional, cell-based"}, "[20]": {"tested_on": "PC-3", "assay": "Potency index, ratio of vorinostat IC50 to test compound IC50 for cytotoxicity against human PC-3 cells assessed as inhibition of cell growth by SRB assay", "format": "functional"}, "[21]": {"tested_on": "Plasmodium falciparum", "assay": "Antimalarial activity against erythrocytic stage of chloroquine susceptible Plasmodium falcipuram 3D7 measured after 3 days by HRP2-ELISA", "format": "functional, organism-based", "conditions": "3D7, 72 h"}, "[22]": {"tested_on": "Plasmodium falciparum", "assay": "Antimalarial activity against erythrocytic stage of chloroquine resistant Plasmodium falcipuram Dd2 measured after 3 days by HRP2-ELISA", "format": "functional, organism-based", "conditions": "Dd2, 72 h"}, "[23]": {"tested_on": "U2OS", "assay": "cells", "format": "functional, cell-based", "conditions": "Homo sapiens, 72 h", "description": "Cytotoxicity against human U2OS cells assessed as inhibition of cell growth measured after 72 hrs by MTT assay"}, "[24]": {"tested_on": "Plasmodium berghei", "assay": "Antimalarial activity against hepatic stage of Plasmodium berghei infected in human Huh-7 cells preincubated for 1 hr followed by parasite addition and measured after 48 hrs by bioluminescence assay", "format": "functional, organism-based"}, "[25]": {"tested_on": "HepG2", "assay": "Cytotoxicity against human HepG2 cells assessed as inhibition of cell growth measured after 72 hrs by MTT assay", "format": "functional, cell-based", "conditions": "HepG2, 72 h"}, "[26]": {"tested_on": "MCF7", "assay": "cells", "format": "functional, cell-based", "conditions": "Homo sapiens, MCF7, 72 h", "description": "Cytotoxicity against human MCF7 cells assessed as inhibition of cell growth measured after 72 hrs by MTT assay"}, "[27]": {"tested_on": "Jurkat E6.1", "assay": "Cytotoxicity against human Jurkat E6.1 cells assessed as inhibition of cell growth by MTT assay", "format": "functional, cell-based"}, "[28]": {"target": "Histone deacetylase 8 (Homo sapiens) (UniProt Q9BY41)", "sequence (Q9BY41 whole entry)": "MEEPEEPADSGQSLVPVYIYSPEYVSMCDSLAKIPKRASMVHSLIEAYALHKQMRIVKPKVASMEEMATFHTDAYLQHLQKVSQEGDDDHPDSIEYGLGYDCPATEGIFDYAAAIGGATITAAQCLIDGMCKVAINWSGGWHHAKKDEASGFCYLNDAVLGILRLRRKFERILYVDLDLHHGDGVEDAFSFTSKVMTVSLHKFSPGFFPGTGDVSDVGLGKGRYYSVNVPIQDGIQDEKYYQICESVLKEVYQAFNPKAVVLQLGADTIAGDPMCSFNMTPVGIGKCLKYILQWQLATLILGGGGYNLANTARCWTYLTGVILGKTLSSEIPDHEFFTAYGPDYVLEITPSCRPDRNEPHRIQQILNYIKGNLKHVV", "assay": "Inhibition of HDAC8 (unknown origin) at 25 nM relative to control"}, "[29]": {"tested_on": "U-937", "assay": "Cytotoxicity against human U-937 cells assessed as inhibition of cell growth by MTT assay", "format": "functional, cell-based"}, "[30]": {"tested_on": "PC-3", "assay": "Cytotoxicity against human PC-3 cells assessed as inhibition of cell growth by MTT assay", "format": "functional, cell-based"}, "[31]": {"tested_on": "K562", "assay": "Cytotoxicity against human K562 cells assessed as inhibition of cell growth by MTT assay", "format": "functional, cell-based"}, "[32]": {"tested_on": "ES-2", "assay": "Cytotoxicity against human ES2 cells assessed as inhibition of cell growth by MTT assay", "format": "functional, cell-based"}, "[33]": {"tested_on": "PLC-PRF-5", "assay": "Cytotoxicity against human PLC-PRF-5 cells assessed as inhibition of cell growth by MTT assay", "format": "functional, cell-based"}, "[34]": {"tested_on": "HepG2", "assay": "Cytotoxicity against human HepG2 cells assessed as inhibition of cell growth by MTT assay", "format": "functional, cell-based"}, "[35]": {"tested_on": "MCF7", "assay": "Antiproliferative activity against human MCF7 cells assessed as inhibition of cell growth by MTT assay", "format": "functional, cell-based"}, "[36]": {"tested_on": "SH-SY5Y", "assay": "Antiproliferative activity against human SH-SY5Y cells assessed as inhibition of cell growth by MTT assay", "format": "functional, cell-based"}, "[37]": {"tested_on": "NCI-H929", "assay": "Antiproliferative activity against human NCI-H929 cells assessed as inhibition of cell growth by MTT assay", "format": "functional, cell-based"}, "[38]": {"tested_on": "U-266", "assay": "Antiproliferative activity against human U-266 cells assessed as inhibition of cell growth by MTT assay", "format": "functional, cell-based"}, "[39]": {"tested_on": "U-937", "assay": "Antiproliferative activity against human U-937 cells assessed as inhibition of cell growth by MTT assay", "format": "functional, cell-based"}}, "data": [{"compound": "O=C(CCCCCCC(=O)Nc1cccc2ccn(S(=O)(=O)c3ccccc3)c12)NO", "values": [{"measurement": "Activity", "setting": "[1]", "value": 68, "unit": "%"}]}, {"compound": "CNC(=O)c1cc(Oc2ccc(NC(=O)Nc3ccc(Cl)c(C(F)(F)F)c3)cc2)ccn1", "note": "[SORAFENIB]", "values": [{"measurement": "IC50", "setting": "[2]", "value": 1, "unit": "nM"}, {"measurement": "IC50", "setting": "[3]", "value": 1, "unit": "nM"}, {"measurement": "IC50", "setting": "[4]", "value": 1, "unit": "nM"}]}, {"compound": "CCn1cnc(-c2ccc(OC)cc2)c1-c1ccc(/C=C/C(=O)NO)cc1", "values": [{"measurement": "IC50", "setting": "[5]", "value": 300, "unit": "nM"}, {"measurement": "IC50", "setting": "[6]", "value": 300, "unit": "nM"}, {"measurement": "IC50", "setting": "[7]", "value": 300, "unit": "nM"}, {"measurement": "IC50", "setting": "[8]", "value": 300, "unit": "nM"}, {"measurement": "IC50", "setting": "[9]", "value": 300, "unit": "nM"}, {"measurement": "IC50", "setting": "[10]", "value": "> 150000", "unit": "nM"}, {"measurement": "IC50", "setting": "[11]", "value": 300, "unit": "nM"}]}, {"compound": "O=C(/C=C/c1ccc(S(=O)(=O)Nc2ccccc2C(F)(F)F)cc1)NO", "values": [{"measurement": "IC50", "setting": "[12]", "value": 770, "unit": "nM"}, {"measurement": "IC50", "setting": "[13]", "value": 770, "unit": "nM"}]}, {"compound": "O=C(/C=C/c1ccc(CN2C/C(=N\\O)c3cc(Cl)ccc32)cc1)NO", "values": [{"measurement": "IC50", "setting": "[14]", "value": 470, "unit": "nM"}, {"measurement": "Ratio IC50", "setting": "[15]", "value": 1.8}, {"measurement": "IC50", "setting": "[16]", "value": 470, "unit": "nM"}, {"measurement": "IC50", "setting": "[17]", "value": 86, "unit": "nM"}, {"measurement": "Ratio IC50", "setting": "[18]", "value": 1.8}, {"measurement": "IC50", "setting": "[19]", "value": 470, "unit": "nM"}, {"measurement": "Ratio IC50", "setting": "[20]", "value": 1.8}]}, {"compound": "O=C(CCCCCCC(=O)Nc1ccccc1)NO", "note": "[VORINOSTAT]", "values": [{"measurement": "Activity", "setting": "[1]", "value": 40, "unit": "%"}]}, {"compound": "COc1cc(NC(C)CCCCCNC(=O)CCC(=O)NO)c2ncccc2c1", "note": "(stereo not drawn)", "values": [{"measurement": "IC50", "setting": "[21]", "value": 300, "unit": "nM"}, {"measurement": "IC50", "setting": "[22]", "value": 300, "unit": "nM"}, {"measurement": "IC50", "setting": "[23]", "value": 3300, "unit": "nM"}, {"measurement": "IC50", "setting": "[24]", "value": 300, "unit": "nM"}, {"measurement": "IC50", "setting": "[25]", "value": 1600, "unit": "nM"}, {"measurement": "IC50", "setting": "[26]", "value": 1600, "unit": "nM"}]}, {"compound": "Nc1ccnc(NC(=O)[C@@H](N)CCCCC(=O)NO)n1", "values": [{"measurement": "IC50", "setting": "[27]", "value": 20000, "unit": "nM"}, {"measurement": "inhibition", "setting": "[28]", "value": 75, "unit": "%"}]}, {"compound": "NC(=O)N1N=C(c2ccccc2)CC1c1ccccc1OCC(=O)NO", "note": "(stereo not drawn)", "values": [{"measurement": "IC50", "setting": "[29]", "value": 18700, "unit": "nM"}, {"measurement": "IC50", "setting": "[30]", "value": 18700, "unit": "nM"}, {"measurement": "IC50", "setting": "[31]", "value": 18700, "unit": "nM"}, {"measurement": "IC50", "setting": "[32]", "value": 18700, "unit": "nM"}, {"measurement": "IC50", "setting": "[33]", "value": 18700, "unit": "nM"}, {"measurement": "IC50", "setting": "[34]", "value": 18700, "unit": "nM"}]}, {"compound": "CO/N=C1\\CN(Cc2ccc(/C=C/C(=O)NO)cc2)c2ccc(F)cc21", "values": [{"measurement": "IC50", "setting": "[14]", "value": 470, "unit": "nM"}, {"measurement": "Ratio IC50", "setting": "[15]", "value": 1.8}, {"measurement": "IC50", "setting": "[16]", "value": 470, "unit": "nM"}, {"measurement": "IC50", "setting": "[17]", "value": 267, "unit": "nM"}, {"measurement": "Ratio IC50", "setting": "[18]", "value": 1.8}, {"measurement": "IC50", "setting": "[19]", "value": 470, "unit": "nM"}, {"measurement": "Ratio IC50", "setting": "[20]", "value": 1.8}]}, {"compound": "O=C(NO)c1cn(C2CCN(C(=O)c3ccc(-c4ccccc4)cc3)CC2)nn1", "values": [{"measurement": "IC50", "setting": "[35]", "value": 1200, "unit": "nM"}, {"measurement": "IC50", "setting": "[36]", "value": 1200, "unit": "nM"}, {"measurement": "IC50", "setting": "[37]", "value": 1200, "unit": "nM"}, {"measurement": "IC50", "setting": "[38]", "value": 1200, "unit": "nM"}, {"measurement": "IC50", "setting": "[39]", "value": 1200, "unit": "nM"}, {"measurement": "IC50", "setting": "[13]", "value": 1200, "unit": "nM"}]}]}
